According to PMC11267380, “USP25 Elevates SHLD2‐Mediated DNA Double‐Strand Break Repair and Regulates Chemoresponse in Cancer” (Advanced Science, 2024):
Values belong to the molecule of their own block, whether it stands above or below them.

What was measured:
NHEJ = NHEJ reporter assay, cells treated with AZ1; type: cell-based; conditions: compared with USP25 depletion (decreased NHEJ); Figure S1h
HR = HR reporter assay, cells treated with AZ1; type: cell-based; conditions: compared with USP25 depletion (increased HR); Figure S1i
RKO cells = assay: CCK8 survival assay, control, USP25 knockdown and SHLD2-depleted RKO cells; type: cell-based; conditions: 5-Fu (0, 0.1, 0.5, 1, 3 µM) or cisplatin (0, 0.1, 0.5, 1, 2, 5 µM)
Procedure: For long‐term proliferation, cells were seeded in triplicate in each well of 96‐well plates at a density of 1000 cells per well. After 24 h of culture, the cells were treated with the indicated doses of regents or peptides and incubated at 37 °C for 72 h. Subsequently, the medium was changed to a fresh medium containing cell counting kit‐8 solution (Dojindo, CK04), and the cells were placed in the incubator for an additional 1–2 h. The absorbance was measured at 450 nm using the SpectraMax M5 reader (Molecular Devices).
(§1) a) HEK293T cells stably expressing control or USP25 shRNA were untreated and treaded with etopside at the indicated time point. Cells were lysed and lysates was performed with the indicated antibodies. b-c) Representative foci images and quantification of RPA32 (b) and RAD51 (c) were obtained in U2OS cells stably expressing control or USP25 shRNA with or without IR treatment (2Gy). n>80 in each group. d) USP25 was knocked down in ER-AsiSI U2OS cells by shRNA, and cell lysates were analyzed using the indicated antibodies. e) Schematic representation of Taqman qPCR primer design for measurement of DSB% at AsiSI sites located on chromosome1(Chr.1). The primer pairs of DNA resection are across BamHI restriction sites are marked by red arrows. ER-AsiSI U2OS cells stably expressing control and USP25 shRNA were treated with 300 nM 4- hydroxytamoxifen (4-OHT) for 4 h or mock treated and genomic DNA was then extracted and digested with BamHI overnight. The percentages of ssDNA at various distances (364nt, 1754nt and 3564nt) were measured by qPCR. f-h) Control and USP25 knockdown RKO cells transfected short interfering RNAs (siRNA) against SHLD2 were subjected to survival assays for CCK8 assay in response to IR (0, 1,1.5,2,2.5,3Gy), 5-Fu (0, 0.1,0.5,1,3µM) or cisplatin(0, 0.1,0.5,1,2,5µM). Statistical analysis was performed using two-way ANOVA followed by a Turkey’s multiple comparison test (b,c,e,f,g,h) .

RKO and SW620 cells = assay: CCK8 survival assay, USP25 knockdown USP25-high colon cancer cells; type: cell-based; conditions: RKO: cisplatin (0, 0.5, 1, 3 µM), 5-Fu (0, 0.1, 0.5, 1, 3 µM), SW620: 5-Fu (0, 0.1, 0.5, 1, 3 µM), 72 h
Procedure: For long-term proliferation, cells were seeded in triplicate in each well of 96-well plates at a density of 1000 cells per well. After 24 h of culture, the cells were treated with the indicated doses of regents or peptides and incubated at 37 °C for 72 h. Subsequently, the medium was changed to a fresh medium containing cell counting kit-8 solution (Dojindo, CK04), and the cells were placed in the incubator for an additional 1-2 h. […] a) The mRNA expression levels of TRIM25, HECTD3, NEDD4L and WWP2 in human normal colon tissue samples (n=41) and colorectal adenocarcinoma tissue samples (n=286 COAD patients) from the Ualcan database were analyzed. b) The protein expression levels of USP25 were measured in HEK293T cells that stably expressed TRIM25 shRNA. c) NHEJ repair capacity of control or TRIM25 knockdown cells were subjected using a reporter assay. d-g) Immunoblot of USP25 in the RKO cells stably expressing control and USP25 shRNA. […] Statistical analysis was performed using t-test (a) or one-way ANOVA followed by a Turkey's multiple comparison test (c) or two-way ANOVA followed by a Turkey's multiple comparison test ([…]) .

[1] = test system: RPA32 phosphorylation of Ser4/Ser8 in HEK293T cells; assay: RPA32 phosphorylation immunoblot after etoposide, USP25-depleted cells; type: cell-based; conditions: HEK293T stably expressing control or USP25 shRNA, Figure S2a
Procedure: as §1, with “Statistical analysis was performed using two-way ANOVA followed by a Turkey’s multiple comparison test (b,c,e,f,g,h) .” left out

USP25 = biological target: T1, USP25 (Homo sapiens, UniProt Q9UHP3); assay: Surface Plasmon Resonance (SPR) analysis of peptide binding; conditions: result in words; for binding affinity for USP25: Figure 7a, Figure S7a-c
T1 sequence (Q9UHP3 1-1055): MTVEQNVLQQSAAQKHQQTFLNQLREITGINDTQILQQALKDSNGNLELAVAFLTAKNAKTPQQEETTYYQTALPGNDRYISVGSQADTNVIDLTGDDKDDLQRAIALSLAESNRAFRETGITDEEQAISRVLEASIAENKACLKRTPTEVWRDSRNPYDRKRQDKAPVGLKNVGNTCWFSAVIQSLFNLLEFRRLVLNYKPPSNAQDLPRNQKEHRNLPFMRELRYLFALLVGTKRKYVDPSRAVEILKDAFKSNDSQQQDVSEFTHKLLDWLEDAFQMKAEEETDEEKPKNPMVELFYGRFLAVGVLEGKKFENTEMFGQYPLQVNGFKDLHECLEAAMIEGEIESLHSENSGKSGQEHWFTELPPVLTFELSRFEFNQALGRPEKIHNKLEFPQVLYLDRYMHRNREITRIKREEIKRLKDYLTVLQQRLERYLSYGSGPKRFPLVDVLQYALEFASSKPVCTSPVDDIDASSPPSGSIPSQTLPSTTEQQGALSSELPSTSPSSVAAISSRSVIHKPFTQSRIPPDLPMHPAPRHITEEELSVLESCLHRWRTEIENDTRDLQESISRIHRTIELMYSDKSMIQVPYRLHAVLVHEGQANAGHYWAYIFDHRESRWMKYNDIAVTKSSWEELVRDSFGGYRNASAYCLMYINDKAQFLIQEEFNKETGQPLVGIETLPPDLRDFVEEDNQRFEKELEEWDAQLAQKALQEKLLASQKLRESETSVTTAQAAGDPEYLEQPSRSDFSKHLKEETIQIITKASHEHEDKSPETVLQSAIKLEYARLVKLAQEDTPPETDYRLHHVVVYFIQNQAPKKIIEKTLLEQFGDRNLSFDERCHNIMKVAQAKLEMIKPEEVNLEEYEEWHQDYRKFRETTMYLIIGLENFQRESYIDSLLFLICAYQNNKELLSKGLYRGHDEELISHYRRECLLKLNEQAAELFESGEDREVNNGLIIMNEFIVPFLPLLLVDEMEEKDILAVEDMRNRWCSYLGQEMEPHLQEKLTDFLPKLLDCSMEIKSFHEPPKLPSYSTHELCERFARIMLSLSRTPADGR
Procedure: Figure 7 Disturbing the USP25 and SHLD2 interaction counteracts colon cancer progression. a) The kinetic interaction of SH‐4 and USP25 was assessed using surface plasmon resonance (SPR) analyses. b) Co‐immunoprecipitation assays (Co‐IP) were performed to detect the interaction between USP25 and SHLD2 in HEK293T cells treated with indicated peptides. c) NHEJ repair capacity of HEK293T cells treated with indicated peptides was subjected using a reporter assay. d) Representative micrographs of GFP‐SHLD2 foci and e) quantification were shown following irradiation and indicated peptide treatment. Cells were stained with anti‐GFP antibodies. f) The highest‐scoring Dock model of the SH‐4 and USP25 complex is shown. Left: the surface of SH‐4 (green) and USP25 complex. Right: the 3D structure of SH‐4 (green) and USP25 complex. g) The effect of indicated peptides(20 µM) in combination with 5‐Fu (0, 0.1, 0.5, 1, 3 µM) on the chemosensitivity of SW620 cells was determined. h‐l) Xenograft tumor formation by SW620 cells in mice that were untreated or treated with PSH‐4 and 5‐Fu or each treatment alone was analyzed. A h) schematic model, i) representative tumor images, j) tumor volume over time, k) tumor weight, and l) HE or Ki67 staining assay were presented (n = 5 animals). m) A schematic model for generating patient‐derived tumor xenografts of colorectal adenocarcinoma (COAD) was provided. n) Western blots showing USP25 levels in COAD patient tumors (patients 1–3) were presented. o) Representative immunohistochemistry (IHC) micrographs showing USP25 expression in COAD patient‐derived tumors were provided. p–s) The PDX xenograft in mice that were untreated or treated with PSH‐4([…] ) and 5‐Fu ([…] ) or each treatment alone were analyzed. Representative p) tumor images, q) tumor volume over time, r) tumor weight, and s) HE or Ki67 staining assay were presented (n = 6 animals). Statistical analysis was performed using one‐way ANOVA followed by a Turkey's multiple comparison test (c,e,k,r) or two‐way ANOVA followed by a Turkey's multiple comparison test (g,j,q). TEXT PRINTED IN THE PICTURE: (a) SH-4: KD (M) 2.082*10^-5; kd (1/s) 0.00484 DOUBTS OF THE COPYIST ABOUT THIS PICTURE: SH-4, KD (M): the digits 2.082 and the exponent -5 are in small print, the 8 could be a 6 or a 3 / SH-4, kd (1/s): 0.00484 is in small print, the 8 could be a 6 or a 3
The amino acid (aa) sequences of peptides covering the SHLD2-binding region from USP25 are shown. The kinetic interaction of peptides and USP25 was determined by surface plasmon resonance (SPR) analyses.

USP25 (as used for SPR) [2] = biological target: T2, USP25 (as used for SPR) (UniProt Q9UHP3 1-1055); assay: SPR
T2 chain: T1 sequence (Q9UHP3 1-1055)

USP25 (as used for SPR) [3] = biological target: T2, USP25 (as used for SPR); assay: SPR

Molecule: OCCNCc1cc(Br)ccc1OCc1ccc(F)c(C(F)(F)F)c1 [AZ1]
NHEJ after USP25 inhibition (NHEJ): led to similar results as depletion of USP25 in cells
HR after USP25 inhibition (HR): led to similar results as depletion of USP25 in cells

Molecule: N.N.[Cl][Pt][Cl] [cisplatin]
sensitization by USP25 knockdown (RKO cells; Figure S2f-h): sensitized cells to IR, 5‐Fu, and cisplatin treatment
sensitization by USP25 knockdown in SHLD2-depleted cells (RKO cells; SHLD2 siRNA): didn't further lead cells to sensitize to these treatments
sensitization by USP25 knockdown, USP25-high cell lines (RKO and SW620 cells): sensitized the cells to IR, cisplatin, and 5‐Fu treatment

Molecule: COc1cc([C@@H]2c3cc4c(cc3[C@@H](O[C@@H]3O[C@@H]5CO[C@@H](C)O[C@H]5[C@H](O)[C@H]3O)[C@H]3COC(=O)[C@H]23)OCO4)cc(OC)c1O [etoposide]
RPA32 phosphorylation of Ser4/Ser8 on USP25 depletion [1]: promoted RPA32 phosphorylation of Ser4/Ser8

Molecule: KNFNTNLFQLGHKCA [SH-4 peptide]
koff (USP25 (as used for SPR) [2]): 0.00484 s⁻¹
Kd (USP25 (as used for SPR) [3]): 20.8 µM

Other lines, results leading:

binding affinity for USP25 (USP25): showed the binding affinity for USP25
Molecule: EKQHKNLENYKVPESI [SH‐2, peptide designed based on the structure of the N‐terminus (aa 1–200) of SHLD2]

binding affinity for USP25 (USP25): showed the binding affinity for USP25
Molecule: FTEEEKYQKLLSENK [SH‐3, peptide designed based on the structure of the N‐terminus (aa 1–200) of SHLD2]

binding affinity for USP25 (USP25): showed the binding affinity for USP25
relative binding affinity for USP25 among SH-1 to SH-4 (USP25): higher affinity
Molecule: KNFNTNLFQLGHKCA [SH‐4, peptide designed based on the structure of the N‐terminus (aa 1–200) of SHLD2]

binding affinity for USP25 (USP25): showed the binding affinity for USP25
relative binding affinity for USP25 among SH-1 to SH-4 (USP25): higher affinity
Molecule: MSVADPWKKIQLLYS [SH‐1, peptide designed based on the structure of the N‐terminus (aa 1–200) of SHLD2]
